Molecules are shown by their SMILES.

Chain of human factor D (P00746 26-253): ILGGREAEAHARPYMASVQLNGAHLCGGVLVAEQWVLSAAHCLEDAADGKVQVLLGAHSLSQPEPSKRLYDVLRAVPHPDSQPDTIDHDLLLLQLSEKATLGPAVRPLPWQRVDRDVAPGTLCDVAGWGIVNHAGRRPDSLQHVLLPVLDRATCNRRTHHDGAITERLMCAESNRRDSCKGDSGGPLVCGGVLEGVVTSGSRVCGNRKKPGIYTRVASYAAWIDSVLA

One assay deals with human factor D (Homo sapiens (Human), UniProt P00746). The assay can be described thus: biochemical. The class given is biochemical. As to conditions: Factor D inhibition data using Method 1; recombinant human factor D 10 nM, substrate Z-Lys-thiobenzyl, fluorescence; read-out: IC50. The essentials:
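E. coli-expressed recombinant human factor D (10 nM) was preincubated with compound for 1 h at room temperature in 0.1 M Hepes pH 7.5, 1 mM MgCl2, 1 M NaCl, 0.05% CHAPS. Fluorescence (ex 485/em 535 nm) was read after adding Z-Lys-thiobenzyl (200 μM) and 2,4-dinitrobenzenesulfonyl-fluoresceine (25 μM); IC50 came from percent inhibition versus concentration.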
Consider `CC(=O)c1nn(CC(=O)N2[C@@H]3C[C@@H]3C[C@H]2C(=O)N[C@H](C)[C@H]2CC2(Cl)Cl)c2cnccc12` [Example 47, (1R,3S,5R)-2-[2-(3-Acetyl-pyrazolo[3,4-c]pyridin-1-yl)-acetyl]-2-aza-bicyclo[3.1.0] hexane-3-carboxylic acid [(R)-1-((R)-2,2-dichloro-cyclopropyl)-ethyl]-amide], for which the IC50 came to 35 nM. On the same count and under the same terms, under `CC1CCCC(CNC(=O)[C@@H]2C[C@H]3C[C@H]3N2C(=O)Nc2cn(C(N)=O)c3ccccc23)C1` (stereo partly drawn) [Example 29, (1R,3S,5R)-2-Aza-bicyclo [3.1.0]hexane-2,3-dicarboxylic acid 2-[(1-carbamoyl-1H-indol-3-yl)-amide] 3-[(3-methyl-cyclohexylmethyl)-amide]] stands 46 nM; under `Cc1nccc2c(C(N)=O)nn(CC(=O)N3[C@@H]4C[C@@H]4C[C@H]3C(=O)N[C@H](C)[C@H]3CC3(Cl)Cl)c12` [Example 44, 1-(2-{(1R,3S,5R)-3-[(R)-1-((R)-2,2-Dichloro-cyclopropyl)-ethylcarbamoyl]-2-aza-bicyclo[3.1.0]hex-2-yl}-2-oxo-ethyl)-7-methyl-1H-pyrazolo[3,4-c]pyridine-3-carboxylic acid amide], 41 nM. Consider `Cc1ccc2c(C(N)=O)nn(CC(=O)N3[C@@H]4C[C@@H]4C[C@H]3C(=O)NC[C@H]3CC3(Cl)Cl)c2c1` [Example 113, 1-(2-{(1R,3S,5R)-3-[((R)-2,2-Dichloro-cyclopropylmethyl)-carbamoyl]-2-aza-bicyclo[3.1.0]hex-2-yl}-2-oxo-ethyl)-6-methyl-1H-indazole-3-carboxylic acid amide], for which the IC50 was found to be 74 nM.

Take `NC(=O)c1nn(CC(=O)N2[C@@H]3C[C@@H]3C[C@H]2C(=O)N[C@H](CO)C23CC(C(F)(F)F)(C2)C3)c2ccccc12` [Example 123, 1-(2-{(1R,3S,5R)-3-[(S)-2-Hydroxy-1-(3-trifluoromethyl-bicyclo[1.1.1]pent-1-yl)-ethylcarbamoyl]-2-aza-bicyclo[3.1.0]hex-2-yl}-2-oxo-ethyl)-1H-indazole-3-carboxylic acid amide]: the IC50 was found to be 1240 nM. On the same count and under the same terms, the figure for `CC(=O)c1nn(CC(=O)N2[C@@H]3C[C@@H]3C[C@H]2C(=O)NCC2CC2(C)C)c2ncccc12` (stereo partly drawn) [Example 12, (1R,3S,5R)-2-[2-(3-Acetyl-pyrazolo[3,4-b]pyridin-1-yl)-acetyl]-2-aza-bicyclo[3.1.0] hexane-3-carboxylic acid (2,2-dimethyl-cyclopropylmethyl)-amide] is 1410 nM; for `CC(=O)c1nn(CC(=O)N2[C@@H]3C[C@@H]3C[C@H]2C(=O)NCC2CC2)c2ncccc12` [Example 1, (1R,3S,5R)-2-[2-(3-Acetyl-pyrazolo[3,4-b]pyridin-1-yl)-acetyl]-2-aza-bicyclo[3.1.0]hexane-3-carboxylic acid cyclopropylmethyl-amide] it is 4790 nM. Take `NC(=O)c1nn(CC(=O)N2[C@@H]3C[C@@H]3C[C@H]2C(=O)NC[C@H]2CC2(Cl)Cl)c2ccc(OCc3ncccn3)cc12` [Example 110, 1-(2-{(1R,3S,5R)-3-[((R)-2,2-Dichloro-cyclopropylmethyl)-carbamoyl]-2-aza-bicyclo [3.1.0]hex-2-yl}-2-oxo-ethyl)-5-(pyrimidin-2-ylmethoxy)-1H-indazole-3-carboxylic acid amide]: the concentration for half-maximal inhibition (IC50) stood at 41 nM. Same read-out and setting: the figure for `CC(=O)c1nn(CC(=O)N2[C@@H]3C[C@@H]3C[C@H]2C(=O)N[C@@H](C)C2CCCCC2)c2cnccc12` [Example 5, (1R,3S,5R)-2-[2-(3-Acetyl-pyrazolo[3,4-c]pyridin-1-yl)-acetyl]-2-aza-bicyclo[3.1.0] hexane-3-carboxylic acid ((S)-1-cyclohexyl-ethyl)-amide] is 5250 nM; for `CC(=O)c1nn(CC(=O)N2[C@@H]3C[C@@H]3C[C@H]2C(=O)NCC2CCCCC2F)c2cnccc12` (mixture of isomers) [Example 16, (1R,3S,5R)-2-[2-(3-Acetyl-pyrazolo[3,4-c]pyridin-1-yl)-acetyl]-2-aza-bicyclo[3.1.0] hexane-3-carboxylic acid (2-fluoro-cyclohexylmethyl)-amide (mixture of 4 diastereomers)] it is 174 nM.

In the case of `CC(=O)c1nn(CC(=O)N2[C@@H]3C[C@@H]3C[C@H]2C(=O)NCC2CCCCC2(C)C)c2cnccc12` (single isomer, unassigned; dia 2) [Example 22], the half-inhibitory concentration (IC50) is 1190 nM.

For `NC(=O)c1nn(CC(=O)N2[C@@H]3C[C@@H]3C[C@H]2C(=O)NC[C@@H]2CC2(Cl)Cl)c2cnccc12` [Example 71, 1-(2-{(1R,3S,5R)-3-[((S)-2,2-Dichloro-cyclopropylmethyl)-carbamoyl]-2-aza-bicyclo[3.1.0]hex-2-yl}-2-oxo-ethyl)-1H-pyrazolo[3,4-c]pyridine-3-carboxylic acid amide], the half-inhibitory concentration (IC50) amounted to 136 nM.

For the molecule `CC(=O)c1nn(CC(=O)N2[C@@H]3C[C@@H]3C[C@H]2C(=O)NCC2CCCC(C)C2)c2cnccc12` (single isomer, unassigned; dia 2) [Example 120], the IC50 worked out at 70 nM.

Take `CC1CCCC(CNC(=O)[C@@H]2C[C@H]3C[C@H]3N2C(=O)Cn2nc(C(N)=O)c3ccncc32)C1` (single isomer, unassigned; dia 1) [Example 115]: the IC50 turned out to be 877 nM. Take `NC(=O)c1nn(CC(=O)N2[C@@H]3C[C@@H]3C[C@H]2C(=O)NC[C@@H]2CC2(Cl)Cl)c2ccccc12` [Example 70, 1-(2-{(1R,3S,5R)-3-[((S)-2,2-Dichloro-cyclopropylmethyl)-carbamoyl]-2-aza-bicyclo[3.1.0]hex-2-yl}-2-oxo-ethyl)-1H-indazole-3-carboxylic acid amide]: the IC50 stood at 90 nM. Regarding `CC(=O)c1nn(CC(=O)N2[C@@H]3C[C@@H]3C[C@H]2C(=O)NCC2CC(C)C2)c2cnccc12` (stereo partly drawn) [Example 7, (1R,3S,5R)-2-[2-(3-Acetyl-pyrazolo[3,4-c]pyridin-1-yl)-acetyl]-2-aza-bicyclo[3.1.0] hexane-3-carboxylic acid (3-methyl-cyclobutylmethyl)-amide], the IC50 amounted to 259 nM. With `CC1(C)[C@@H](CNC(=O)[C@@H]2C[C@H]3C[C@H]3N2C(=O)Cn2nc(C(N)=O)c3ccncc32)C1(Cl)Cl` [Example 101, 1-(2-{(1R,3S,5R)-3-[((S)-2,2-Dichloro-3,3-dimethyl-cyclopropylmethyl)-carbamoyl]-2-aza-bicyclo[3.1.0]hex-2-yl}-2-oxo-ethyl)-1H-pyrazolo[3,4-c]pyridine-3-carboxylic acid amide], the IC50 was 297 nM. `CC(=O)c1nn(CC(=O)N2[C@@H]3C[C@@H]3C[C@H]2C(=O)NCC2CCCC(C)(C)C2)c2cnccc12` (single isomer, unassigned; dia 2) [Example 18]: the IC50 worked out at 389 nM. Regarding `CC1CCCC1CNC(=O)[C@@H]1C[C@H]2C[C@H]2N1C(=O)Cn1nc(C(N)=O)c2ccncc21` (single isomer, unassigned; dia 4) [Example 88], the IC50 was 781 nM. For `CC(=O)c1nn(CC(=O)N2[C@@H]3C[C@@H]3C[C@H]2C(=O)NC[C@@H]2CC2(Cl)Cl)c2ncccc12` [Example 68, (1R,3S,5R)-2-[2-(3-Acetyl-pyrazolo[3,4-b]pyridin-1-yl)-acetyl]-2-aza-bicyclo[3.1.0] hexane-3-carboxylic acid ((S)-2,2-dichloro-cyclopropylmethyl)-amide], the IC50 came out at 177 nM.

The same assay, now with this note: IC50, Factor D inhibition data using Method 1; recombinant human factor D 10 nM, substrate Z-Lys-thiobenzyl, fluorescence.
Turning to `[2H]C([2H])([2H])[C@@H](NC(=O)[C@@H]1C[C@H]2C[C@H]2N1C(=O)Cn1nc(C(N)=O)c2ccccc21)[C@H]1CC1(Cl)Cl` [Example 121, 1-(2-{(1R,3S,5R)-3-[(R)-1-((R)-2,2-Dichloro-cyclopropyl)-ethyl-2,2,2-D3-carbamoyl]-2-aza-bicyclo[3.1.0]hex-2-yl}-2-oxo-ethyl)-1H-indazole-3-carboxylic acid amide], the IC50 is 14 nM. With `NC(=O)c1nn(CC(=O)N2[C@@H]3C[C@@H]3C[C@H]2C(=O)NC(CO)C2CC2(Cl)Cl)c2ccccc12` (single isomer, unassigned; dia 1) [Example 23], the IC50 turned out to be 1610 nM. In the case of `CC(=O)c1nn(CC(=O)N2[C@@H]3C[C@@H]3C[C@H]2C(=O)NC(C)C2CC2(Cl)Cl)c2ccc(OCc3ncccn3)cc12` (single isomer, unassigned; dia 2) [Example 33], the IC50 was 300 nM. With `CC1C(CNC(=O)[C@@H]2C[C@H]3C[C@H]3N2C(=O)Cn2nc(C(N)=O)c3ccccc32)C1(Cl)Cl` (single isomer, unassigned; dia 2) [Example 74, 1-(2-{(1R,3S,5R)-3-[((1R,3R) or (1S,3S)-2,2-Dichloro-3-methyl-cyclopropylmethyl)-carbamoyl]-2-aza-bicyclo[3.1.0]hex-2-yl}-2-oxo-ethyl)-1H-indazole-3-carboxylic acid amide-Dia 2], the IC50 is 12 nM. For the molecule `CC1CCC(CNC(=O)[C@@H]2C[C@H]3C[C@H]3N2C(=O)Cn2nc(C(N)=O)c3ccccc32)C1` (single isomer, unassigned; dia 4) [Example 91], the IC50 amounted to 46 nM. With `CC1CCC(CNC(=O)[C@@H]2C[C@H]3C[C@H]3N2C(=O)Cn2nc(C(N)=O)c3ccccc32)C1` (single isomer, unassigned; dia 1) [Example 89], the IC50 was 74 nM. On to `CC(=O)c1nn(CC(=O)N2[C@@H]3C[C@@H]3C[C@H]2C(=O)N[C@H](C)[C@H]2CC2(Cl)Cl)c2ccc(OCc3ncccn3)cc12` [Example 32, (1R,3S,5R)-2-{2-[3-Acetyl-5-(pyrimidin-2-ylmethoxy)-indazol-1-yl]-acetyl}-2-aza-bicyclo[3.1.0]hexane-3-carboxylic acid [(R)-1-((R)-2,2-dichloro-cyclopropyl)-ethyl]-amide-Dia 1], for which the IC50 was 6 nM.

Values taken from patent publication US9468661B2, “Pyrrolidine derivatives and their use as complement pathway modulators” (priority 2012, dated 2016).
